Laboratory results from PubChem BioAssay (NCI).
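GI50 marks 50% less growth. TGI denotes the concentration required for complete inhibition of growth.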

Experiments:
Assay in all cases: NCI tumour cell line growth inhibition, 384-well format
HCT-15 colon = tested on: HCT-15 colon
786-0 renal = tested on: 786-0 renal
NCI-H226 lung = tested on: NCI-H226 lung
HOP-62 NSCLC = tested on: HOP-62 NSCLC
CCRF-CEM leukemia = tested on: CCRF-CEM leukemia
DU-145 prostate = tested on: DU-145 prostate
SF-539 CNS = tested on: SF-539 CNS
SNB-75 CNS = tested on: SNB-75 CNS
OVCAR-8 ovarian = tested on: OVCAR-8 ovarian
HT29 colon = tested on: HT29 colon
OVCAR-4 ovarian = tested on: OVCAR-4 ovarian
HOP-92 NSCLC = tested on: HOP-92 NSCLC
NCI-H322M lung = tested on: NCI-H322M lung
T-47D breast = tested on: T-47D breast
NCI-H23 lung = tested on: NCI-H23 lung
MDA-MB-435 melanoma = tested on: MDA-MB-435 melanoma
ACHN renal = tested on: ACHN renal
RPMI-8226 leukemia = tested on: RPMI-8226 leukemia
A498 renal = tested on: A498 renal
SF-268 CNS = tested on: SF-268 CNS
A549 NSCLC = tested on: A549 NSCLC
UACC-62 melanoma = tested on: UACC-62 melanoma
UACC-257 melanoma = tested on: UACC-257 melanoma
MCF7 breast = tested on: MCF7 breast
SNB-19 CNS = tested on: SNB-19 CNS
SN12C renal = tested on: SN12C renal
MDA-MB-231 breast = tested on: MDA-MB-231 breast
TK-10 renal = tested on: TK-10 renal
BT-549 breast = tested on: BT-549 breast
M14 melanoma = tested on: M14 melanoma
SK-MEL-2 melanoma = tested on: SK-MEL-2 melanoma
MDA-MB-468 breast = tested on: MDA-MB-468 breast
PC-3 prostate = tested on: PC-3 prostate
OVCAR-3 ovarian = tested on: OVCAR-3 ovarian
RXF 393 renal = tested on: RXF 393 renal
LOX IMVI melanoma = tested on: LOX IMVI melanoma
HS 578T breast = tested on: HS 578T breast
NCI-H522 lung = tested on: NCI-H522 lung
EKVX NSCLC = tested on: EKVX NSCLC
HL-60(TB) leukemia = tested on: HL-60(TB) leukemia
SK-MEL-28 melanoma = tested on: SK-MEL-28 melanoma
KM12 colon = tested on: KM12 colon
OVCAR-5 ovarian = tested on: OVCAR-5 ovarian
MOLT-4 leukemia = tested on: MOLT-4 leukemia
SW-620 colon = tested on: SW-620 colon
U251 glioblastoma = tested on: U251 glioblastoma
CAKI-1 renal = tested on: CAKI-1 renal
NCI/ADR-RES ovarian = tested on: NCI/ADR-RES ovarian
HCT-116 colon = tested on: HCT-116 colon
UO-31 renal = tested on: UO-31 renal
MALME-3M melanoma = tested on: MALME-3M melanoma
IGROV1 ovarian = tested on: IGROV1 ovarian
SF-295 CNS = tested on: SF-295 CNS
K-562 leukemia = tested on: K-562 leukemia
SK-OV-3 ovarian = tested on: SK-OV-3 ovarian

For `O=P1(NCCCl)OCCCN1CCCl` (stereo not given), the GI50 (HCT-15 colon) was > 100 µM, the TGI (HCT-15 colon) was > 100 µM and the GI50 ([…]-0 renal) was > 100 µM. The TGI (786-0 renal) was > 100 µM, the GI50 (NCI-H226 lung) was > 100 µM and the TGI (NCI-H226 lung) was > 100 µM. For the same compound, the GI50 (HOP-62 NSCLC) was > 100 µM, the TGI (HOP-62 NSCLC) was > 100 µM and the GI50 (CCRF-CEM leukemia) was > 100 µM. For the same compound, the TGI (CCRF-CEM leukemia) was > 100 µM, the GI50 (DU-145 prostate) was > 100 µM and the TGI (DU-145 prostate) was > 100 µM. For the same compound, the GI50 (SF-539 CNS) was > 100 µM, the TGI (SF-539 CNS) was > 100 µM and the GI50 (SNB-75 CNS) was > 100 µM. The TGI (SNB-75 CNS) was > 100 µM, the GI50 (OVCAR-8 ovarian) was > 100 µM and the TGI (OVCAR-8 ovarian) was > 100 µM. For the same compound, the GI50 (HT29 colon) was > 100 µM, the TGI (HT29 colon) was > 100 µM and the GI50 (OVCAR-4 ovarian) was > 100 µM. For the same compound, the TGI (OVCAR-4 ovarian) was > 100 µM, the GI50 (HOP-92 NSCLC) was > 100 µM and the TGI (HOP-92 NSCLC) was > 100 µM. The GI50 (NCI-H322M lung) was > 100 µM, the TGI (NCI-H322M lung) was > 100 µM and the GI50 (T-47D breast) was > 100 µM. The TGI (T-47D breast) was > 100 µM, the GI50 (NCI-H23 lung) was > 100 µM and the TGI (NCI-H23 lung) was > 100 µM. The GI50 (MDA-MB-435 melanoma) was > 100 µM, the TGI (MDA-MB-435 melanoma) was > 100 µM and the GI50 (ACHN renal) was > 100 µM. For the same compound, the TGI (ACHN renal) was > 100 µM, the GI50 (RPMI-8226 leukemia) was > 100 µM and the TGI (RPMI-8226 leukemia) was > 100 µM. For the same compound, the GI50 (A498 renal) was > 100 µM, the TGI (A498 renal) was > 100 µM and the GI50 (SF-268 CNS) was > 100 µM. For the same compound, the TGI (SF-268 CNS) was > 100 µM, the GI50 (A549 NSCLC) was > 100 µM and the TGI (A549 NSCLC) was > 100 µM. The GI50 (UACC-62 melanoma) was > 100 µM, the TGI (UACC-62 melanoma) was > 100 µM and the GI50 (UACC-257 melanoma) was > 100 µM. For the same compound, the TGI (UACC-257 melanoma) was > 100 µM, the GI50 (MCF7 breast) was > 100 µM and the TGI (MCF7 breast) was > 100 µM. The GI50 (SNB-19 CNS) was > 100 µM, the TGI (SNB-19 CNS) was > 100 µM and the GI50 (SN12C renal) was > 100 µM. For the same compound, the TGI (SN12C renal) was > 100 µM, the GI50 (MDA-MB-231 breast) was > 100 µM and the TGI (MDA-MB-231 breast) was > 100 µM. The GI50 (TK-10 renal) was > 100 µM, the TGI (TK-10 renal) was > 100 µM and the GI50 (BT-549 breast) was > 100 µM. For the same compound, the TGI (BT-549 breast) was > 100 µM, the GI50 (M14 melanoma) was > 100 µM and the TGI (M14 melanoma) was > 100 µM. The GI50 (SK-MEL-2 melanoma) was > 100 µM, the TGI (SK-MEL-2 melanoma) was > 100 µM and the GI50 (MDA-MB-468 breast) was > 100 µM. For the same compound, the TGI (MDA-MB-468 breast) was > 100 µM, the GI50 (PC-3 prostate) was > 100 µM and the TGI (PC-3 prostate) was > 100 µM. The GI50 (OVCAR-3 ovarian) was > 100 µM, the TGI (OVCAR-3 ovarian) was > 100 µM and the GI50 (RXF 393 renal) was > 100 µM. For the same compound, the TGI (RXF 393 renal) was > 100 µM, the GI50 (LOX IMVI melanoma) was > 100 µM and the TGI (LOX IMVI melanoma) was > 100 µM. The GI50 (HS 578T breast) was > 100 µM, the TGI (HS 578T breast) was > 100 µM and the GI50 (NCI-H522 lung) was > 100 µM. The TGI (NCI-H522 lung) was > 100 µM, the GI50 (EKVX NSCLC) was > 100 µM and the TGI (EKVX NSCLC) was > 100 µM. The GI50 (HL-60(TB) leukemia) was > 100 µM, the TGI (HL-60(TB) leukemia) was > 100 µM and the GI50 (SK-MEL-28 melanoma) was > 100 µM. The TGI (SK-MEL-28 melanoma) was > 100 µM, the GI50 (KM12 colon) was > 100 µM and the TGI (KM12 colon) was > 100 µM. The GI50 (OVCAR-5 ovarian) was > 100 µM, the TGI (OVCAR-5 ovarian) was > 100 µM and the GI50 (MOLT-4 leukemia) was > 100 µM. For the same compound, the TGI (MOLT-4 leukemia) was > 100 µM, the GI50 (SW-620 colon) was > 100 µM and the TGI (SW-620 colon) was > 100 µM. The GI50 (U251 glioblastoma) was > 100 µM, the TGI (U251 glioblastoma) was > 100 µM and the GI50 (CAKI-1 renal) was > 100 µM. For the same compound, the TGI (CAKI-1 renal) was > 100 µM, the GI50 (NCI/ADR-RES ovarian) was > 100 µM and the TGI (NCI/ADR-RES ovarian) was > 100 µM. For the same compound, the GI50 (HCT-116 colon) was > 100 µM, the TGI (HCT-116 colon) was > 100 µM and the GI50 (UO-31 renal) was > 100 µM. The TGI (UO-31 renal) was > 100 µM, the GI50 (MALME-3M melanoma) was > 100 µM and the TGI (MALME-3M melanoma) was > 100 µM. The GI50 (IGROV1 ovarian) was > 100 µM, the TGI (IGROV1 ovarian) was > 100 µM and the GI50 (SF-295 CNS) was > 100 µM. For the same compound, the TGI (SF-295 CNS) was > 100 µM, the GI50 (K-562 leukemia) was > 100 µM and the TGI (K-562 leukemia) was > 100 µM. The GI50 (SK-OV-3 ovarian) was > 100 µM and the TGI (SK-OV-3 ovarian) was > 100 µM.
